This is an account of results in patent publication US20130184257A1, “PIPERIDINYL-SUBSTITUTED LACTAMS AS GPR119 MODULATORS” (priority 2010, published 2013).

The structures appear in SMILES notation.

In the assay the test system is modified version of the GPR119 receptor (94% identity to human receptor) stably expressed in HEK-293 cells. Nature of the assay: cAMP Production Assay (LANCE cAMP kit, TR-FRET). It is filed as cell-based. Particulars: for cAMP production in HEK-293 cells: HEK-293 cells expressing modified GPR119, test compounds 0.2 nM to 10 μM, one-hour incubation at ambient temperature; for Fold over baseline: increase in cAMP relative to basal levels, 1.5-fold or greater = agonist activity. On the procedure:
The assay utilized HEK-293 cells that stably express a modified version of the GPR119 receptor (94% identity to human receptor), under the control of a CMV promoter containing a tet-on element for tetracycline-inducible expression. GPR119 agonist-induced cyclic AMP (cAMP) production was measured in this cell line using the LANCE cAMP kit (Perkin Elmer, Waltham, Mass.). To generate a working stock of cells for the assay, cells were treated overnight with 1 μg/mL doxycycline at 37° C. in the presence of 5% CO2 to induce receptor expression. Cells were then harvested by enzymatic dissociation with 0.05% trypsin, resuspended in freezing medium (DMEM growth medium with 10% each of fetal bovine serum and DMSO), aliquoted and frozen at −80° C. On the day of the assay, frozen cells were thawed, washed 1× in PBS and resuspended in Hank's buffered salt solution (HBSS) containing 5 mM HEPES, 0.1% BSA and Alexa Fluor 647-conjugated anti-cAMP antibody (diluted 1:100). The cell suspension was then transferred to a Proxiplate Plus white 384-well assay plate (Perkin-Elmer) at 2000 cells/well. Test compounds at final concentrations ranging from 0.2 nM to 10 μM were added to the assay plate, followed by a one-hour incubation at ambient temperature (volume=10 μL/well). DMSO concentration was held constant at 0.5%. After incubation with test compounds, 10 μL of a detergent buffer containing a biotinylated cAMP/Europium-conjugated streptavidin complex (Europium-labeled cAMP tracer) were added to each well on the assay plate, followed by a 2-hour incubation at ambient temperature. During this incubation cAMP released from lysed cells competes with the Europium-labeled cAMP tracer for binding to the Alexa Fluor 647-conjugated antibody. […] Cellular cAMP levels were then determined by interpolation of raw signal data using a cAMP standard curve. Compounds were determined to have agonist activity if they stimulated a 1.5-fold or greater increase in cAMP relative to basal levels.
(TR-FRET usually uses a lanthanide donor and a delayed reading to cut background.)

Turning to `CC(C)c1noc(N2CCC(N3CC[C@@H](Oc4cc(F)c(S(C)(=O)=O)cc4F)C3=O)CC2)n1` [Example 4, (R)-3-(2,5-difluoro-4-(methylsulfonyl)phenoxy)-1-(1-(3-isopropyl-1,2,4-oxadiazol-5-yl)piperidin-4-yl)pyrrolidin-2-one], the “cAMP production in HEK-293 cells” value worked out at 18.7 nmol and the Fold over baseline was 3.9.

Consider `CS(=O)(=O)c1cc(F)c(N[C@H]2CCCN(C3CCN(c4nc(C(F)(F)F)no4)CC3)C2=O)c(F)c1` [Example 10, (S)-3-(2,6-difluoro-4-(methylsulfonyl)phenylamino)-1′-(3-trifluoromethyl-1,2,4-oxadiazol-5-yl)-1,4′-bipiperidin-2-one], for which the “cAMP production in HEK-293 cells” value amounted to 8.3 nmol and the Fold over baseline is 2.9.

On to `CS(=O)(=O)c1cc(F)c(O[C@H]2CCN(C3CCN(c4noc(C(F)(F)F)n4)CC3)C2=O)c(F)c1` [Example 28, (S)-3-(2,6-difluoro-4-(methylsulfonyl)phenoxy)-1-(1-(5-(trifluoromethyl)-1,2,4-oxadiazol-3-yl)piperidin-4-yl)pyrrolidin-2-one], for which the “cAMP production in HEK-293 cells” value was determined as 101.5 nmol and the Fold over baseline is 5.0.

As to `CC(F)(F)c1nc(N2CCC(N3CC[C@H](Nc4cc(F)c(S(C)(=O)=O)cc4F)C3=O)CC2)no1` [Example 64, (S)-3-((2,5-difluoro-4-(methylsulfonyl)phenyl)amino)-1-(1-(5-(1,1-difluoroethyl)-1,2,4-oxadiazol-3-yl)piperidin-4-yl)pyrrolidin-2-one], the “cAMP production in HEK-293 cells” value stood at 15.8 nmol and the Fold over baseline is 3.3.

Regarding `CC(C)c1nc(N2CCC(N3CCC[C@H](Nc4ccc(S(C)(=O)=O)cc4F)C3=O)CC2)no1` [Example 14, (S)-3-(2-fluoro-4-(methylsulfonyl)phenylamino)-1′-(5-isopropyl-1,2,4-oxadiazol-3-yl)-1,4′-bipiperidin-2-one], the “cAMP production in HEK-293 cells” value amounted to 18.9 nmol and the Fold over baseline came to 3.5.

Regarding `CS(=O)(=O)c1cc(F)c(N[C@H]2CCN(C3CCN(c4noc(C(F)F)n4)CC3)C2=O)c(F)c1` [Example 31, (S)-3-(2,6-difluoro-4-(methylsulfonyl)phenylamino)-1-(1-(5-(difluoromethyl)-1,2,4-oxadiazol-3-yl)piperidin-4-yl)pyrrolidin-2-one], the “cAMP production in HEK-293 cells” value is 4.9 nmol and the Fold over baseline is 2.3.

For `CS(=O)(=O)c1ccc(N[C@H]2CCN(C3CCN(c4noc(C(F)(F)F)n4)CC3)C2=O)c(F)c1` [Example 16, (S)-3-(2-fluoro-4-(methylsulfonyl)phenylamino)-1-(1-(5-(trifluoromethyl)-1,2,4-oxadiazol-3-yl)piperidin-4-yl)pyrrolidin-2-one], the “cAMP production in HEK-293 cells” value was found to be 17.0 nmol and the Fold over baseline amounted to 4.3.

In the case of `CS(=O)(=O)c1cc(F)c(O[C@H]2CCN(C3CCN(c4nc(C(F)(F)F)no4)CC3)C2=O)cc1F` [Example 11, (S)-1-(1-(3-trifluoromethyl-1,2,4-oxadiazol-5-yl)piperidin-4-yl)-3-(2,5-difluoro-4-(methylsulfonyl)phenoxy)pyrrolidin-2-one], the “cAMP production in HEK-293 cells” value is 13.5 nmol and the Fold over baseline stood at 4.0.

In the case of `CS(=O)(=O)c1ccc(N[C@H]2CCN(C3CCN(c4noc(-c5ccccc5)n4)CC3)C2=O)c(F)c1` [Example 44, (S)-3-(2-fluoro-4-(methylsulfonyl)-phenylamino)-1-(1-(5-phenyl-1,2,4-oxadiazol-3-yl)piperidin-4-yl)pyrrolidin-2-one], the “cAMP production in HEK-293 cells” value amounted to 19.5 nmol and the Fold over baseline is reported as 6.8.

In the case of `CS(=O)(=O)c1ccc(N[C@H]2CCN(C3CCN(c4noc(C5CCCC5)n4)CC3)C2=O)c(F)c1` [Example 43, (S)-1-(1-(5-cyclopentyl-1,2,4-oxadiazol-3-yl)piperidin-4-yl)-3-(2-fluoro-4-(methylsulfonyl)-phenylamino)-pyrrolidin-2-one], the “cAMP production in HEK-293 cells” value was found to be 14.7 nmol and the Fold over baseline is reported as 3.6.

Consider `CS(=O)(=O)c1ccc(N[C@H]2CCN(C3CCN(c4noc(C5CC5)n4)CC3)C2=O)c(F)c1` [Example 45, (S)-1-(1-(5-cyclopropyl-1,2,4-oxadiazol-3-yl)piperidin-4-yl)-3-(2-fluoro-4-(methylsulfonyl)-phenylamino)-pyrrolidin-2-one], for which the “cAMP production in HEK-293 cells” value amounted to 13.3 nmol and the Fold over baseline was 5.3.

Consider `CC(F)(F)c1nc(N2CCC(N3CCC[C@H](Nc4c(F)cc(S(C)(=O)=O)cc4F)C3=O)CC2)no1` [Example 50, (S)-3-(2,6-difluoro-4-(methylsulfonyl)phenylamino)-1′-(5-(1,1-difluoroethyl)-1,2,4-oxadiazol-3-yl)-1,4′-bipiperidin-2-one], for which the “cAMP production in HEK-293 cells” value amounted to 3.9 nmol and the Fold over baseline amounted to 1.7.

For the compound `CC(C)c1noc(N2CCC(N3CC[C@H](Oc4cc(F)c(S(C)(=O)=O)cc4F)C3=O)CC2)n1` [Example 1, (S)-3-(2,5-difluoro-4-(methylsulfonyl)phenoxy)-1-(1-(3-isopropyl-1,2,4-oxadiazol-5-yl)piperidin-4-yl)pyrrolidin-2-one], the “cAMP production in HEK-293 cells” value came out at 25.0 nmol and the Fold over baseline was found to be 4.6.

For the compound `CS(=O)(=O)c1ccc(N[C@H]2CCN(C3CCN(c4noc(CC(F)(F)F)n4)CC3)C2=O)c(F)c1` [Example 36, (S)-3-(2-fluoro-4-(methylsulfonyl)phenylamino)-1-(1-(5-(2,2,2-trifluoroethyl)-1,2,4-oxadiazol-3-yl)piperidin-4-yl)pyrrolidin-2-one], the “cAMP production in HEK-293 cells” value turned out to be 9.9 nmol and the Fold over baseline is recorded as 4.3.

Consider `CS(=O)(=O)c1ccc(N[C@H]2CCN(C3CCN(c4noc(-c5ccccn5)n4)CC3)C2=O)c(F)c1` [Example 38, (S)-3-(2-fluoro-4-(methylsulfonyl)-phenylamino)-1-(1-(5-(pyridin-2-yl)-1,2,4-oxadiazol-3-yl)piperidin-4-yl)pyrrolidin-2-one], for which the “cAMP production in HEK-293 cells” value is 9.0 nmol and the Fold over baseline was 3.5.

Consider `CS(=O)(=O)c1cc(F)c(N[C@H]2CCCN(C3CCN(c4nc(C(F)(F)F)no4)CC3)C2=O)cc1F` [Example 9, (S)-3-(2,5-difluoro-4-(methylsulfonyl)phenylamino)-1′-(3-trifluoromethyl-1,2,4-oxadiazol-5-yl)-1,4′-bipiperidin-2-one], for which the “cAMP production in HEK-293 cells” value was 11.4 nmol and the Fold over baseline is on record as 3.5.

For `CS(=O)(=O)c1cc(F)c(N[C@H]2CCN(C3CCN(c4noc(C(F)F)n4)CC3)C2=O)cc1F` [Example 30, (S)-3-(2,5-difluoro-4-(methylsulfonyl)phenylamino)-1-(1-(5-(difluoromethyl)-1,2,4-oxadiazol-3-yl)piperidin-4-yl)pyrrolidin-2-one], the “cAMP production in HEK-293 cells” value was determined as 7.5 nmol and the Fold over baseline amounted to 3.1.

As to `CC(F)(F)c1nc(N2CCC(N3CCC[C@H](Oc4cc(F)c(S(C)(=O)=O)cc4F)C3=O)CC2)no1` [Example 55, (S)-3-(2,5-difluoro-4-(methylsulfonyl)phenoxy)-1′-(5-(1,1-difluoroethyl)-1,2,4-oxadiazol-3-yl)-[1,4′-bipiperidin]-2-one], the “cAMP production in HEK-293 cells” value is 17.3 nmol and the Fold over baseline was found to be 3.7.

`CS(=O)(=O)c1cc(F)c(O[C@@H]2CCCN(C3CCN(c4noc(C(F)(F)F)n4)CC3)C2=O)cc1F` [Example 67, (R)-3-(2,5-difluoro-4-(methylsulfonyl)phenoxy)-1′-(5-(trifluoromethyl)-1,2,4-oxadiazol-3-yl)-[1,4′-bipiperidin]-2-one]: the “cAMP production in HEK-293 cells” value was 43.6 nmol and the Fold over baseline is 3.6.

As to `CS(=O)(=O)c1cc(F)c(N[C@H]2CCCN(C3CCN(c4noc(C(F)(F)F)n4)CC3)C2=O)cc1F` [Example 25, (S)-3-(2,5-difluoro-4-(methylsulfonyl)phenylamino)-1′-(5-(trifluoromethyl)-1,2,4-oxadiazol-3-yl)-1,4′-bipiperidin-2-one], the “cAMP production in HEK-293 cells” value was found to be 49.0 nmol and the Fold over baseline turned out to be 2.9.

As to `CC[C@H](C)c1nc(N2CCC(N3CC[C@H](Nc4ccc(S(C)(=O)=O)cc4F)C3=O)CC2)no1` [Example 41, (S)-1-(1-(5-sec-butyl-1,2,4-oxadiazol-3-yl)piperidin-4-yl)-3-(2-fluoro-4-(methylsulfonyl)phenylamino)-pyrrolidin-2-one], the “cAMP production in HEK-293 cells” value turned out to be 15.9 nmol and the Fold over baseline is on record as 4.0.
